Columns and labels:
Assay in all cases: relative viability (nuclei count vs DMSO), 5 days (fraction); higher = more cells survive
[1] = test system: NCI-H3122
Outline: (§1)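 Lung cancer cell lines were seeded in 1536-well plates and dosed by pin tool the next day, with either a single drug or a fixed anchor-drug dose combined with five library-drug doses (not always all listed) spaced in √10 steps. Five days later, one step fixed the cells and stained their nuclei (final 0.05% Triton X-100, 1% formaldehyde, 1 ug/ml Hoechst), and nuclei were counted on 4× images. Relative viability is the nuclei count in treated wells divided by the count in vehicle wells, and each value is the median of duplicate plates.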

[2] = test system: HCC-827
Outline: as §1

[3] = test system: NCI-H1734
Outline: as §1

[4] = test system: NCI-H1944
Outline: as §1

[5] = test system: HCC-15
Outline: as §1

[6] = test system: NCI-H2023
Outline: as §1

[7] = test system: ABC-1
Outline: as §1

[8] = test system: NCI-H2228
Outline: as §1

[9] = test system: HCC-44
Outline: as §1

[10] = test system: ChaGo-K-1
Outline: as §1

[11] = test system: SW 1573
Outline: as §1

Cc1csc(=NC2CCCCC2)n1/N=C/c1ccc(O)c(O)c1O [MIM1] + N=C(N)NC(=N)NCCc1ccccc1 [Phenformin] (partner 250 µM) was tested, and the relative viability ([1]; first compound 0.2 µM) was 0.364, the relative viability ([1]; first compound 0.6325 µM) was 0.371 and the relative viability ([1]; first compound 2 µM) was 0.355. For the same molecule, the relative viability ([1]; first compound 6.325 µM) was 0.195, the relative viability ([1]; first compound 20 µM) was 0.143 and the relative viability ([2]; first compound 0.2 µM) was 0.412. It also gave a relative viability ([2]; first compound 0.6325 µM) of 0.377, a relative viability ([2]; first compound 2 µM) of 0.404 and a relative viability ([2]; first compound 6.325 µM) of 0.31. The relative viability ([2]; first compound 20 µM) was 0.13, the relative viability ([3]; first compound 0.2 µM) was 0.395 and the relative viability ([3]; first compound 0.6325 µM) was 0.375. It also gave a relative viability ([3]; first compound 2 µM) of 0.443, a relative viability ([3]; first compound 6.325 µM) of 0.35 and a relative viability ([3]; first compound 20 µM) of 0.179. It also gave a relative viability ([4]; first compound 0.2 µM) of 0.208, a relative viability ([4]; first compound 0.6325 µM) of 0.206 and a relative viability ([4]; first compound 2 µM) of 0.149. It also gave a relative viability ([4]; first compound 6.325 µM) of 0.163, a relative viability ([4]; first compound 20 µM) of 0.104 and a relative viability ([5]; first compound 0.2 µM) of 0.501. The relative viability ([5]; first compound 2 µM) was 0.51, the relative viability ([5]; first compound 6.325 µM) was 0.162 and the relative viability ([5]; first compound 20 µM) was 0.114. It also gave a relative viability ([6]; first compound 0.2 µM) of 0.417, a relative viability ([6]; first compound 0.6325 µM) of 0.416 and a relative viability ([6]; first compound 2 µM) of 0.294. It also gave a relative viability ([6]; first compound 6.325 µM) of 0.127, a relative viability ([6]; first compound 20 µM) of 0.0931 and a relative viability ([7]; first compound 0.2 µM) of 0.228. It also gave a relative viability ([7]; first compound 0.6325 µM) of 0.261, a relative viability ([7]; first compound 2 µM) of 0.231 and a relative viability ([7]; first compound 6.325 µM) of 0.201. For the same molecule, the relative viability ([7]; first compound 20 µM) was 0.189, the relative viability ([8]; first compound 0.2 µM) was 0.389 and the relative viability ([8]; first compound 0.6325 µM) was 0.272. For the same molecule, the relative viability ([8]; first compound 2 µM) was 0.332, the relative viability ([8]; first compound 6.325 µM) was 0.145 and the relative viability ([8]; first compound 20 µM) was 0.0959. The relative viability ([9]; first compound 0.2 µM) was 0.239, the relative viability ([9]; first compound 0.6325 µM) was 0.138 and the relative viability ([9]; first compound 2 µM) was 0.111. The relative viability ([9]; first compound 6.325 µM) was 0.154, the relative viability ([9]; first compound 20 µM) was 0.13 and the relative viability ([10]; first compound 0.2 µM) was 0.521. It also gave a relative viability ([10]; first compound 0.6325 µM) of 0.49, a relative viability ([10]; first compound 2 µM) of 0.45 and a relative viability ([10]; first compound 6.325 µM) of 0.227. For the same molecule, the relative viability ([10]; first compound 20 µM) was 0.171, the relative viability ([11]; first compound 0.2 µM) was 0.377 and the relative viability ([11]; first compound 0.6325 µM) was 0.455. It also gave a relative viability ([11]; first compound 2 µM) of 0.442 and a relative viability ([11]; first compound 6.325 µM) of 0.25.
